The numbers were not newly measured in patent US20100086495A1, “COMPOSITIONS AND METHODS FOR ENHANCING TRANSMUCOSAL DELIVERY” (DERMA-YOUNG LTD., priority 2007, published 2010), which cites them from elsewhere.

For the data set the following is noted: vitamin B12 deficient subjects.

As to vitamin B12, the “increase in serum concentration levels of the vitamin, sublingual versus conventional oral vitamin B12” value is listed as “same extent of increase”.
